Where a name gives a salt, the structure may show the parent alone.
Tests used:
TAC mice = experiment: Acute effect on mouse models of heart failure (TAC, single injection 5 weeks later); format: in vivo; conditions: TAC mice 5 weeks after TAC, 50 mg/kg, echocardiography before and 10 minutes after injection
Experimental: Transverse aortic constriction (TAC) was performed as described previously [Date, et al. (2002) The antioxidant N-2-mercaptopropionyl glycine attenuates left ventricular hypertrophy in in vivo murine pressure-overload model. J Am Coll Cardiol 39: 907-912.]. Briefly, 8- to 10-week-old mice were anesthetized with anesthetic (0.3 mg/kg of medetomidine, 4.0 mg/kg of midazolam, and 5.0 mg/kg of butorphanol) administered intraperitoneally, and the proximal portion of the sternum was cut open to visualize the aorta. A 7-0 silk suture was placed around the aortic arch distal to the brachiocephalic artery. The suture was tightened firmly around a blunt 26-gauge needle placed adjacent to the aorta. The needle was then removed, and the chest and overlying skin were closed. Sham-operated mice underwent an identical surgical procedure without ligation of the aortic arch. At the end of the operation, 0.3 mg/kg of atipamezole was administered subcutaneously to reverse medetomidine. FIG. 1 is a schematic diagram of TAC.
To analyze the cardiac function, we used Vevo® 2100 (VISUALSONICS) at the indicated time points after TAC operation. Mice were kept under inhalation anesthesia with 2.5% isoflurane. LV function was measured in M mode of the parasternal short-axis view.
Mice were subjected to TAC at 8 weeks of age. Five weeks later (at 13 weeks of age), the mice were injected with KUS121 (50 mg/kg), and left ventricular ejection fraction (LVEF), left ventricular end-diastolic diameter (LVDd), and heart rate (HR) were assessed by echocardiography before and 10 minutes after the injection.
Mice were subjected to TAC at 8 weeks of age. Five weeks later (at 13 weeks of age), the mice were injected with KUS121 (50 mg/kg), and left ventricular pressure was measured by catheterization before and 10 minutes after the injection. The left ventricular pressure was 46.6 mmHg before KUS121 administration, and increased to 128.9 mmHg 10 minutes after the administration. In addition, Max/min dp/dt was changed from 1295.5/−621.4 mmHg/s to 3972.8/−1311.1 mmHg/s. […] Left ventricular ejection fraction was then measured over time and was 37% before KUS121 administration, increased to 67% 5 minutes after the administration, and returned to the baseline about 2 hours after the administration (FIG. 16).
Mice were subjected to TAC at 8 weeks of age. Five weeks later (at 13 weeks of age), the mice were injected with KUS187 (50 mg/kg), and left ventricular ejection fraction was assessed by echocardiography before and 10 minutes after the injection.

[1] = test system: beagle dog models of heart failure; experiment: Beagle dog models of rapid ventricular pacing-induced heart failure; format: in vivo; conditions: infusion per FIG. 17 protocol
Experimental: After induction of general anesthesia with thiopental sodium (20 mg/kg, i.v.: 0.5 g of Labonal injection, Nipro ES Pharma Corporation) in 10- to 12-month-old male beagle dogs (9.80-11.50 kg), a tracheal cannula was inserted into the airway, and artificial respiration was performed with an Acoma veterinary ventilator (PRO-45Va, Acoma Medical Corporation). Anesthesia was maintained by inhalation of a gas mixture (Air:O2=3:0.2) and 1.0 to 2.5% isoflurane (isoflurane inhalation solution “Pfizer”, Mylan Seiyaku Co., Ltd.) using an Acoma animal anesthesia machine (NS-5000A, Acoma Medical Industry Co., Ltd.) to maintain a constant depth of anesthesia. An incision was made in the right side of the neck of the animal, an animal internal cardiac pacemaker (SIP-501, Star Medical Corporation) was implanted subcutaneously, a retractable screw-in reed (Tendril STS J, St. Jude Medical, Inc.) was inserted through the right jugular vein under X-ray fluoroscopy (BV Pulsera, Koninklijke Philips N.V.), and the tip was implanted in the right ventricular wall. Pacing was started at 244-251 beats/min on postoperative day 1. Dogs with ejection fraction (EF) decreasing to 30-50% at 4 weeks after pacemaker activation were considered to have heart failure and subjected to analysis.
Echocardiography was performed using a general-purpose ultrasound imaging system (Vivid S6, GE Medical Systems). The left ventricular end-diastolic diameter (LVIDd), left ventricular end-systolic diameter (LVIDs), ejection fraction (EF), and left ventricular internal diameter shortening (% FS) were measured in M-mode by placing a sector probe (10 MHz) on the chest.
Dogs were anesthetized intravenously with 14.5 to 22.3 mg/kg of secobarbital sodium (Injectable Ionar sodium (0.2), Nichi-Iko Co., Ltd.), followed by subcutaneous administration of 0.2 mg/kg of meloxicam (Metacam 0.5% injection, Boehringer Ingelheim Animal Health Japan Co.). A tracheal tube was inserted into the airway and connected to an Acoma animal ventilator (PRO-45Va, Acoma Medical Industry Co., Ltd.). The ventilator was set at a respiratory rate of 14-18 strokes/min and a tidal volume of 10-20 mL/kg/stroke, and respiration was controlled by an Acoma animal anesthesia machine (NS-5000A, Acoma Medical Industry Co., Ltd.) using a gas mixture (FiO2=0.3-1.0). The exhaled CO2 partial pressure was monitored using an exhaled carbon dioxide monitor (OLG-2800, Nihon Kohden Corporation). The animals were fixed in the dorsal position and the thighs and neck were shom. Anesthesia was maintained by continuous intravenous infusion of sodium secobarbital (5 mg/kg/hr) through the radial cutaneous vein using a Telfusion syringe pump (STC-523, Terumo Corporation). A Swan-Ganz catheter was inserted through the left femoral vein. A catheter for coronary angiography was inserted through the left femoral artery. A 5F sheath for arterial blood sampling was placed in the right femoral artery. A catheter for PV-loop analysis was inserted from the left internal carotid artery. An 8F occlusion balloon was placed from the right femoral vein for occlusion testing. In addition, KUS121 was administered from the left common jugular vein.
Beagle dog models of heart failure were prepared by rapid ventricular pacing. Cardiac function was assessed by echocardiography before KUS121 administration and after continuous infusion at 40 mg/h. KUS121 increased LVEF, even if it was based on either of the Teichholz method and the modified-Simpson's method, and increased % FS (FIG. 18). Changes in heart rate, systolic blood pressure, diastolic blood pressure, left ventricular ejection fraction, mean pulmonary artery pressure, pulmonary capillary wedge pressure, left ventricular end-diastolic pressure, and adjusted dp/dt are shown in FIGS. 19 to 21. […]

| SMILES | left ventricular ejection fraction (LVEF) (TAC mice) | heart rate [1] | left ventricular systolic function [1] |
| --- | --- | --- | --- |
| CCCCOc1c(C=O)cc(C)cc1-c1ccc(/N=N/c2cc(S(=O)(=O)O)c3ccccc3c2N)cn1 [KUS187, 4-amino-3-[6-(3-formyl-2-butoxy-5-methylphenyl)pyridine-3-ylazo]naphthalene-1-sulfonic acid sodium salt] | increased | – | – |
| CC(CCc1ccc(O)cc1)NCCc1ccc(O)c(O)c1 (stereo not drawn) [dobutamine, reference compound] | – | increased heart rate | improved |
